Assay results published in patent US20260216182A1, “PYRIDAZINE NLRP3 INHIBITOR COMPOUND, PHARMACEUTICAL COMPOSITION, AND PREPARATION METHOD THEREFOR AND USE THEREOF” (CHANGCHUN GENESCIENCE PHARMACEUTICAL CO., LTD., priority 2022, published 2026).
Where two headings read alike, the source gives them in different places.

Legend:
NLRP3 = target: T1, NLRP3 (Homo sapiens, UniProt Q96P20); assay: IC50 of NLRP3 inhibitors in reducing IL-1β secretion by THP-1 cells (PMA, LPS, nigericin; ELISA); format: cell-based; conditions: compound + nigericin 1 h
T1 construct: endogenous in cells; host or cells: THP-1 (human monocyte, PMA-differentiated, LPS-primed, nigericin-stimulated)
Experimental: Test Example 1 Experiment on Detection of IC50 of NLRP3 Inhibitors in Reducing the Level of IL-1β Secretion by THP-1 Cells
In this experiment, we use the human monocyte THP-1 to study the inhibitory activity of NLRP3 inhibitor on the secretion of IL-Iβ by cells. Human THP-1 cells are treated with crotonol-12-tetradecanoate-13-acetate (PMA) to differentiate into mature macrophage models. Then, according to the two stages of inflammasome formation in cells (assembly and activation), the cells are stimulated with lipopolysaccharide (LPS) and nigericin in turn, ultimately promoting the extracellular release of IL-1β by THP-1 cells. The first stage of inflammasome formation involves stimulating cells with LPS (lipopolysaccharide), an agonist of the Toll-like receptor TLR4, to activate the expression of the inflammasome-associated proteins NLRP3, caspase 1, and pro-IL-1β, a precursor of IL-1β. The second stage of inflammasome formation involves the addition of the potassium ion carrier nigericin, which causes a series of membrane potential changes in THP-1 cells, destroys the cell membrane structure, causes the efflux of cellular potassium ions, further stimulates the oligomerization of NLRP3 monomers to form NLRP3 oligomers, and begins to recruit ASC and pro-caspase-1 to assemble the NLRP3 inflammasome complex containing a large amount of pro-caspase-1. The pro-caspase-1 on the activated NLRP3 inflammasome is enzymatically self-activated to form a large amount of active caspase-1. The activated caspase-1 further enzymatically promotes the conversion of pro-IL-1β into mature IL-1β that can be secreted.
(1) Cell suspensions were collected. The cells were centrifuged at 1000 rpm for 4 min, the supernatant was discarded, the cells were resuspended with 1 mL of test medium, and then the cell culture medium was gently pipetted up and down with a pipette and its tip to break up the cell aggregates. After counting the cells, the THP-1 cells were resuspended with complete RPMI medium 1640 containing PMA and seeded into 96-well plates and cultured in a 37° C., 5% CO2 incubator for 72 h.
(2) The culture medium was taken out from each well with an automatic plate washer dispenser EL406 and each well was rinsed twice with PBS. To each well, 96 μL of RPMI 1640 medium containing LPS was added. The cells were cultured in a 37° C., 5% CO2 incubator for 4 h.
(3) To each well, 2 μL of the compound and 2 μL of nigericin sodium salt were added, and the final compound concentration selected was 5000 nM, 1000 nM, 200 nM, 40 nM, 8 nM, 1.6 nM, 0.32 nM, 0 nM, respectively. The cells were cultured in a 37° C., 5% CO2 incubator for 1 h.
(4) An appropriate amount of supernatant was taken out, diluted 100 times, and the content of IL-1β in the supernatant was detected using Human IL-1 beta Valukine ELISA kit.

IL-1β = assay: Mouse acute peritonitis model (LPS/ATP), IL-1β in peritoneal lavage fluid and blood; format: in vivo, C57BL/6 mice; conditions: Mus musculus, 10 mg/kg oral, vs vehicle group
Experimental: Test Example 2: Mouse Acute Peritonitis Model Evaluation Experiment
Male C57BL/6 mice were orally administered with a 10 mg/kg dose of the test compound or control vehicle, and then injected intraperitoneally with 1 μg of E. coli 055: B5 ultrapure lipopolysaccharide (LPS) suspension 1 h later, followed by an intraperitoneal injection of 0.5 ml of 30 mM disodium salt ATP suspension (in PBS, the pH of the ATP solution was adjusted to 7.2 before injection) 2 h later. After 30 min, all animals would be euthanized by carbon dioxide, and blood and peritoneal lavage fluid would be collected. The peritoneal lavage fluid was kept at 4° C.
Preparation of peritoneal lavage fluid: The peritoneal cavity would be lavaged with ice-cold PBS (3 mL) containing 25 U/mL heparin and 10% heat-inactivated FBS. Prior to use, one tablet of the protease inhibitor mixture was added per 50 mL of buffer. The collected lavage fluid would be centrifuged (centrifugation conditions: 1000g, 4° C., 10 min) to remove cells and cell debris, and the clarified samples would be stored at −80° C. for measurement of cytokine IL-1β.
The mouse IL-1β/IL-1F2 DuoSet ELISA kit (R&D Systems) was used to measure the changes in IL-1β cytokine levels in peritoneal lavage fluid and serum. By comparing with the Vehical group, the inhibition rate of the compound on IL-1β was calculated.

mouse NASH model = assay: Mouse NASH model test (HFD + fructose), combination with semaglutide; format: in vivo, mice; conditions: low/high dose semaglutide alone
Experimental: Test Example 6 Mouse NASH Model Test
After the animals arrived and acclimatized for 1 week, they were randomly divided into 2 groups. 48 mice were fed a high-fat diet (HFD) and had free access to 15% fructose water (w/w). After the animals were fed for 20 weeks, they were fasted for 6 h, and fasting blood glucose (FBG) was monitored by a blood glucose meter. Orbital blood was taken from all animals, and serum was collected by centrifugation to detect serum ALT levels. Animals were randomly divided into 6 groups according to their body weight, FBG and ALT levels. After that, the high fat feed (HFD) was replaced with the modified high fat feed (mHFD), and the mice had free access to 15% fructose water (v/w). The 8 mice in the other group were fed normal diet and water.
The first end point of the experiment: After 8 weeks of administration, the end point body weight was recorded and the animals were fasted for 6 h, and fasting blood glucose was measured with a blood glucose meter. The mice were then euthanized by CO2 and serum was collected by orbital blood sampling and stored at −80° C. for insulin and biochemical analysis. The animal's liver was taken and the liver weight was recorded. The liver was divided into four parts, one part was quick-frozen in liquid nitrogen for biochemical analysis, one part was placed in tissue fixative for pathological analysis, one part was stored in RNAlater for qPCR detection (backup for later use), and one part was quick-frozen in liquid nitrogen for possible subsequent detection.
The second end point of the experiment: 3 mice were kept in each group for 6 weeks for further observation. The end point body weight was recorded and the mice were fasted for 6 h. Fasting blood glucose was tested with a blood glucose meter. The mice were then euthanized by CO2 and serum was collected by orbital blood sampling and stored at −80° C. for insulin and biochemical analysis. The animal's liver was taken and the liver weight was recorded. The liver was divided into four parts, one part was quick-frozen in liquid nitrogen for biochemical analysis, one part was placed in tissue fixative for pathological analysis, one part was stored in RNAlater for qPCR detection (backup for later use), and one part was quick-frozen in liquid nitrogen for subsequent detection.

[1] = read-out: IL-1β Peritoneal lavage fluid (inhibition rate)
[2] = read-out: IL-1β Plasma (inhibition rate)

T1 sequence (Q96P20 whole entry): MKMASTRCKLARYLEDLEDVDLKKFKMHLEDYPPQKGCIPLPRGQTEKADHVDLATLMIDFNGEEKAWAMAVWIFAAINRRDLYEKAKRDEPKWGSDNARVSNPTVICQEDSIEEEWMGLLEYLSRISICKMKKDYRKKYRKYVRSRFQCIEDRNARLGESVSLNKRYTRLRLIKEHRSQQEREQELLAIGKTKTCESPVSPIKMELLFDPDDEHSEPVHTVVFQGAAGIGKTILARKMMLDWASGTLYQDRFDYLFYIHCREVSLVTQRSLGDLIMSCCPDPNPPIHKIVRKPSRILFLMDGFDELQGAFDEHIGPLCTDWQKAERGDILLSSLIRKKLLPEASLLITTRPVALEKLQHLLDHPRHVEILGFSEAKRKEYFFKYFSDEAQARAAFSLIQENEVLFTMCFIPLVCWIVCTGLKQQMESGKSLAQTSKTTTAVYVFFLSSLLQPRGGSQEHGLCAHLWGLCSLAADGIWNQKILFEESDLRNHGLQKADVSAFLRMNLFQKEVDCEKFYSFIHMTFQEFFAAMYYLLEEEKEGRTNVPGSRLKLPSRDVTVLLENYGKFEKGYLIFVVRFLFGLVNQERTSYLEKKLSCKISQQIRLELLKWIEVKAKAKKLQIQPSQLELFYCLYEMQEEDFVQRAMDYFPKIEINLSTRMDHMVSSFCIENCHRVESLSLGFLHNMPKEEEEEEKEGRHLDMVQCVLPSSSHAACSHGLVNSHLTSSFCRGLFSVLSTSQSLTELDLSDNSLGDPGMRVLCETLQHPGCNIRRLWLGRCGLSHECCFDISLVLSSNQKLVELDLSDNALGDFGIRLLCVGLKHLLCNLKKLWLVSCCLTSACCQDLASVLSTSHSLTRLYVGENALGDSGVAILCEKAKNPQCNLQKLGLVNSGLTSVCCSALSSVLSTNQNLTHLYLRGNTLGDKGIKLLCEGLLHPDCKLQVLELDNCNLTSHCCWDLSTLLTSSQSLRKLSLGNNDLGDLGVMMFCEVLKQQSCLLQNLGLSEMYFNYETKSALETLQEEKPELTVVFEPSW

| Molecule | IC50 (NLRP3) [nM] | inhibition at 10 mg/kg (IL-1β; [1]) [%] | inhibition at 10 mg/kg (IL-1β; [2]) [%] | rebound of body weight after drug withdrawal (mouse NASH model) |
| --- | --- | --- | --- | --- |
| CC#Cc1ccc2c(-c3c(O)cc(Cl)cc3F)nnc(NC[C@H](O)CO)c2c1 [Compound 063, (2S)-3-((4-(4-chloro-2-fluoro-6-hydroxyphenyl)-7-(prop-1-yn-1-yl)phthalazin-1-yl)amino) propan-1,2-diol] | 15 | 79 | 74 |  |
| CC#Cc1ccc2c(-c3c(O)cc(C(F)(F)F)cc3F)nnc(NC[C@H](O)CO)c2c1 [Compound 064, (2S)-3-((4-(2-fluoro-6-hydroxy-4-(trifluoromethyl)phenyl)-7-(prop-1-yn-1-yl)phthalazin-1-yl)amino) propan-1,2-diol] | 18 | 81 | 90 |  |
| OC[C@@H](O)CNc1nnc(-c2ccc(Cl)cc2O)c2ccc(C#CC3CC3)cc12 [Compound 079, (S)-3-((4-(4-chloro-2-hydroxyphenyl)-7-(cyclopropylethynyl)phthalazin-1-yl)amino) propan-1,2-diol] | 41 | 51 | 21 |  |
| CC(=O)c1ccc2c(-c3ccc(C(F)(F)F)cc3O)nnc(N[C@@H]3CCCC[C@H]3O)c2c1 [Compound 081] | 5.3 | 45 | 61 |  |
| CC(=O)c1ccc2c(-c3ccc(C(F)(F)F)cc3O)nnc(NC[C@H](O)CO)c2c1 [Compound 082] | 32 | 0 | 12 |  |
| semaglutide [reference compound] |  |  |  | neither the control compound combined with semaglutide nor the groups of low/high dose semaglutide alone inhibited the rebound of body weight |
